Reference: patent US8455544B2, “Synthetic triterpenoids and methods of use in the treatment of disease” (Reata Pharmaecuticals, Inc., priority 2008, dated 2013)

Experiments:
[1] = Serum creatinine in toxicology study, dogs; type: in vivo, beagle dogs; conditions: oral, daily for three months
Protocol: (§1) FIGS. 3a-d—RTA 402 reduces serum creatinine levels in monkeys, dogs, and rats. (FIG. 3a) Cynomolgus monkeys were administered RTA 402 orally at the indicated doses once daily for 28 days. The percent reduction of serum creatinine on Day 28 in RTA 402-treated monkeys relative to vehicle-treated control monkeys is shown. (FIG. 3b) RTA 402 was administered orally to beagle dogs at the indicated doses daily for three months. Control animals received vehicle (sesame oil). The percent change in serum creatinine at the three-month time point relative to baseline is shown. (FIG. 3c) Sprague-Dawley rats were administered RTA 402 orally at the indicated doses once daily for a period of one month. The percent reduction of serum creatinine at study completion in RTA 402-treated rats relative to vehicle-treated control rats is shown. (FIG. 3d) Sprague-Dawley rats were administered the amorphous form of RTA 402 orally at the indicated doses once daily for a period of three months. The percent reduction of serum creatinine at study completion in RTA 402-treated rats relative to vehicle-treated control rats is shown. […] For example, a reading of −15 on this axis indicates a 15% reduction in serum creatinine.
(§2) Serum creatinine has been measured in several animal species treated with RTA 402 in the course of toxicology studies. […]

[2] = system: ischemia-reperfusion induced renal damage; test: Mouse model of ischemic acute renal failure (ischemia-reperfusion); type: in vivo
Protocol: FIGS. 1a-d—RTA 402 reduces renal damage following ischemia-reperfusion. Mice were administered RTA 402 at 2 mg/kg or simply the vehicle (sesame oil) daily by oral gavage beginning on […]. On Day 0, a clamp was placed on the left renal artery for 17 minutes and then removed to induce ischemia-reperfusion. (FIG. 1a) On Day 1, blood was collected from animals that were subjected to clamping and “sham” control animals that underwent surgery without clamping of the renal artery. Blood urea nitrogen (BUN) levels were measured as a surrogate for renal damage. (FIGS. 1b-d) Sections of kidneys from RTA 402-treated or vehicle-treated mice were scored for histological damage (FIGS. 1b & 1d) and inflammation (FIG. 1c). (FIG. 1d) Black arrows (vehicle group) show two of many severely damaged tubules in the outer medulla. Red arrows (RTA 402 group) show two of many undamaged tubules in the outer medulla.
In a mouse model of ischemic acute renal failure, the renal artery is clamped for approximately twenty minutes. After this time, the clamp is removed and the kidney is reperfused with blood. Ischemia-reperfusion results in renal damage and decreased renal function which can be assessed by blood urea nitrogen (BUN) levels, which become elevated following renal damage. As shown in FIGS. 1a-d, surgically-induced ischemia-reperfusion increased BUN levels by approximately 2-fold.

[3] = Serum creatinine in toxicology study, monkeys; type: in vivo, cynomolgus monkeys; conditions: oral, once daily for 28 days
Protocol: as §1, §2

RAW264.7 macrophages = test: Cell viability, WST-1 reagent; type: cell-based; conditions: Mus musculus, RAW264.7 (20 ng/ml IFNγ)
[4] = system: patients with pancreatic cancer; test: Study of RTA 402 in combination with gemcitabine in patients with pancreatic cancer: eGFR; type: in vivo, human; parameters: unit not given here
Protocol: FIG. 5—RTA 402 increases GFR in human patients with cancer. Estimated glomerular filtration rate (eGFR) was measured in RTA 402-treated patients enrolled in a multi-month clinical trial for the treatment of cancer. All patients (n=11) dosed through six months were included in the analysis. The dosing information for these patients is provided in Example 5, below.
Some of these patients were enrolled in the Phase I study, whereas others were enrolled in a study of RTA 402 (in combination with gemcitabine) in patients with pancreatic cancer.

For `COC(=O)[C@]12CCC(C)(C)C[C@H]1[C@H]1C(=O)C=C3[C@@]4(C)C=C(C#N)C(=O)C(C)(C)[C@@H]4CC[C@@]3(C)[C@]1(C)CC2` [RTA 402, methyl-2-cyano-3,12-dioxooleana-1,9-dien-28-oic acid], the “Serum creatinine levels relative to baseline” value [1] was “Significant reductions”, the “Histological measures of kidney damage and inflammation” value ([2]; 2 mg/kg orally once daily) was “significantly improved” and the “BUN levels relative to vehicle-treated animals” value ([2]; 2 mg/kg orally once daily beginning two days prior to surgery, p<0.01) was “significantly reduced”. For the same molecule, the “Serum creatinine levels relative to control animals” value [3] was “Significant reductions”, the IC50 (RAW264.7 macrophages) was 80 nM and the eGFR ([4]; Pt 1001, dose 150 mg, cycle 1, BL 68.8) was 78.9. The eGFR ([4]; Pt 1001, dose 150 mg, cycle 2, BL 68.8) was 109.9, the eGFR ([4]; Pt 1001, dose 150 mg, cycle 3, BL 68.8) was 135.7 and the eGFR ([4]; Pt 1001, dose 150 mg, cycle 4, BL 68.8) was 175.5. The eGFR ([4]; Pt 1001, dose 150 mg, cycle 5, BL 68.8) was 175.5, the eGFR ([4]; Pt 1001, dose 150 mg, cycle 6, BL 68.8) was 135.7 and the eGFR ([4]; Pt 1104, dose 300/150 mg, cycle 1, BL 67.3) was 95.7. The eGFR ([4]; Pt 1104, dose 300/150 mg, cycle 2, BL 67.3) was 71.6, the eGFR ([4]; Pt 1104, dose 300/150 mg, cycle 3, BL 67.3) was 141.2 and the eGFR ([4]; Pt 1104, dose 300/150 mg, cycle 4, BL 67.3) was 95.7. It also gave an eGFR ([4]; Pt 1104, dose 300/150 mg, cycle 5, BL 67.3) of 114.4, an eGFR ([4]; Pt 1104, dose 300/150 mg, cycle 6, BL 67.3) of 114.4 and an eGFR ([4]; Pt 1105, dose 300 mg, cycle 1, BL 82.4) of 106.6. It also gave an eGFR ([4]; Pt 1105, dose 300 mg, cycle 2, BL 82.4) of 89.3, an eGFR ([4]; Pt 1105, dose 300 mg, cycle 3, BL 82.4) of 106.6 and an eGFR ([4]; Pt 1105, dose 300 mg, cycle 4, BL 82.4) of 106.6. The eGFR ([4]; Pt 1105, dose 300 mg, cycle 5, BL 82.4) was 131.6, the eGFR ([4]; Pt 1105, dose 300 mg, cycle 6, BL 82.4) was 170.3 and the eGFR ([4]; Pt 1106, dose 300 mg, cycle 1, BL 89.0) was 106.3. The eGFR ([4]; Pt 1106, dose 300 mg, cycle 2, BL 89.0) was 106.3, the eGFR ([4]; Pt 1106, dose 300 mg, cycle 3, BL 89.0) was 106.3 and the eGFR ([4]; Pt 1106, dose 300 mg, cycle 4, BL 89.0) was 131.2. The eGFR ([4]; Pt 1106, dose 300 mg, cycle 5, BL 89.0) was 131.2 and the eGFR ([4]; Pt 1106, dose 300 mg, cycle 6, BL 89.0) was 131.2.
